Test results published in patent publication US11155542B2, “Antimicrobial compounds, their use for the treatment of mammalian infections and a new metabolic mechanism” (priority 2016, dated 2021).
Values after ≈ are worked out from the molar mass of the structure shown.

Legend:
[1] = Fresh blood assay, mice; type: in vitro ADME, C57BL/6J mice; settings: in vitro incubation of fresh whole blood, HPLC-HRMS
Procedure: Mice: Fresh whole blood was collected from C57BL/6J mice after cervical dislocation under isoflurane anesthesia. Test item solutions were prepared in DMSO (5 mg/mL) and 0.4 μL of this solution was added to 400 μL fresh whole blood. The mixtures were incubated at 37° C. for 4 h and centrifuged at 4° C. and 3000 rpm to yield plasma. Plasma samples (50 μL) were mixed with acetonitrile (200 μL) on ice, vortexed, treated in an ultrasonic bath (3-5 s) and centrifuged at 4° C. and 9750 rpm. The supernatants were concentrated with a nitrogen stream to a residual volume of approximately 40 μL and analyzed by HPLC and LC-HRMS.

[2] = tested on: M. marinum; experiment: MIC M. marinum; type: cell-based; settings: Mycobacterium marinum
[3] = tested on: M. vaccae 10670; experiment: MIC M. vaccae 10670; type: cell-based; settings: Mycolicibacterium vaccae
[4] = tested on: Mtb H37Rv; experiment: Resazurin microtiter assay (REMA), MIC Mtb H37Rv; type: cell-based; settings: Mycobacterium tuberculosis
[5] = Cytotoxicity determination (HeLa); type: cell-based; settings: human, HeLa cells (DSM ACC 57)
Procedure: The test items were dissolved in DMSO (typically 10 mg/mL, less soluble compounds lower). The solutions were diluted in RPMI 1640 medium. HeLa cells (DSM ACC 57) were grown in RPMI 1640 and harvested at the logarithmic growth phase after soft trypsinization using 0.25% trypsin in phosphate buffered saline (PBS) containing 0.02% ethylenediaminetetraacetic acid (EDTA). For each experiment, approximately 10,000 cells were seeded with 0.1 mL culture medium per well of the 96-well microplates. HeLa cells were pre-incubated for 48 h prior to the addition of the test compounds (final DMSO concentration ≤0.5%), which were carefully diluted on the subconfluent monolayers. Incubation was then conducted in a humidified atmosphere at 37° C. and 5% CO2. The adherent HeLa cells were fixed by glutaraldehyde and stained with a 0.05% solution of methylene blue for 10 min. After gently washing, the stain was eluted with 0.2 mL of 0.33 N HCl in the wells. The optical densities were measured at 660 nm in a SUNRISE microplate reader (TECAN).

[6] = Chemical stability and solubility of Meisenheimer complexes and methylated derivatives; settings: room temperature
[7] = Blank plasma from untreated animals spiked with BTZ043; type: in vitro ADME
Text: It was therefore reasoned, that a possible explanation of this phenomenon would involve a yet unknown metabolite that was either thermally or oxidatively unstable when exposed to air.

[8] = type: in vitro ADME; settings: 5 µg/mL
Procedure: Human: A BTZ043 solution in DMSO (5 mg/mL) was prepared and 1 μL of this solution was added to 1 mL aliquots fresh whole blood. The mixtures were shaken at 37° C. for 2 h or 16 h and centrifuged at 4° C. and 3000 rpm to yield plasma. Plasma samples (60 μL) were mixed with acetonitrile (240 μL) on ice, vortexed, treated in an ultrasonic bath (3-5 s) and centrifuged at 4° C. and 9750 rpm. The supernatants were concentrated with a nitrogen stream to a residual volume of approximately 40 μL and analyzed by HPLC and LC-HRMS.

[9] = Minipig plasma samples after oral BTZ043; type: in vivo, minipigs; settings: plasma samples after incubation at room temperature, in some samples
Procedure: In order to reveal potentially overlooked metabolites, additional metabolic studies of BTZ043 were performed that incorporated careful analysis of highly resolved HPLC chromatograms of plasma samples after different incubation times at room temperature. To ensure maximum stability of the chromatographic conditions, all solvents were carefully degassed through vacuum treatment and/or sparging with nitrogen. […] The concomitant drastic increase of the BTZ043 peak area (in some samples >100%) emphasized the significance of this transient metabolite. […] It was suspected that this metabolite could be formed through an enzymatic reduction of BTZ043 and that it is unstable towards oxygen from air.
Minipig plasma samples: Minipigs received oral doses of 360 mg/kg BTZ043. Blood was collected 2 h subsequent to administration of the compound formulation, immediately cooled on ice and centrifuged at 4° C. and 3000 rpm to yield plasma aliquots which were snap frozen and stored at −80° C. Plasma aliquots (50 μL) were mixed with acetonitrile (200 μL) on ice and under inert conditions (Don Whitley Scientific, anaerobic workstation), vortexed, treated in an ultrasonic bath (3-5 s) and centrifuged at 4° C. and 9750 rpm. The supernatants were concentrated with a nitrogen stream to a residual volume of approximately 40 μL and analyzed by HPLC and LC-HRMS.

Cc1c(C(F)(F)F)cc([N+](=O)[O-])c2sc(N3CCC4(CC3)OC[C@H](C)O4)nc(=O)c12 [Example 9b, (S)-5-Methyl-2-(2-methyl-1,4-dioxa-8-azaspiro[4.5]decan-8-yl)-8-nitro-6-(trifluoromethyl)-4H-1,3-benzothiazin-4-one]
Formation of the Meisenheimer complex (reduced form) in the blood assay [1]: could only be detected in trace amounts | MIC [2]: 8 ng/mL (≈ 0.018 µM) | MIC [3]: < 1.2 ng/mL | MIC [4]: 8 ng/mL (≈ 0.018 µM) | CC50 [5]: > 50000 ng/mL

COC1=C2CC(C(F)(F)F)=CC([N+](=O)[O-])=C2SC(N2CCC3(CC2)OC[C@H](C)O3)=N1 [Compound 6b]
Solubility and stability of the methylated derivatives [6]: sufficiently soluble and stable at room temperature

Cc1c(C(F)(F)F)cc([N+](=O)[O-])c2sc(N3CCN(CC4CCCCC4)CC3)nc(=O)c12 [Example 16, 2-(4-(Cyclohexylmethyl)piperazin-1-yl)-5-methyl-8-nitro-6-(trifluoromethyl)-4H-1,3-benzothiazin-4-one]
MIC [2]: 1 ng/mL (≈ 0.00213 µM) | MIC [3]: < 1.2 ng/mL | MIC [4]: 0.5 ng/mL (≈ 0.00106 µM) | CC50 [5]: > 25000 ng/mL

C[C@H]1COC2(CCN(c3nc(=O)c4cc(C(F)(F)F)cc([N+](=O)[O-])c4s3)CC2)O1 [BTZ043, (S)-2-(2-methyl-1,4-dioxa-8-azaspiro[4.5]decan-8-yl)-8-nitro-6-(trifluoro-methyl)-4H-1,3-benzothiazin-4-one, reference compound]
Peak areas of BTZ043 in spiked blank plasma over time [7]: remained completely unchanged over time | Transformation of BTZ043 to 5b in fresh whole human blood [8]: transformation of BTZ043 to 5b after several hours | Increase of the BTZ043 peak area in plasma samples over time [9]: > 100% | MIC [2]: 4 ng/mL (≈ 0.00927 µM) | MIC [3]: < 1.2 ng/mL | MIC [4]: 1 ng/mL (≈ 0.00232 µM) | CC50 [5]: > 50000 ng/mL

Cc1c(C(F)(F)F)cc2c(=O)nc(N3CCC4(CC3)OC[C@H](C)O4)sc2c1[N+](=O)[O-] [Example 9a, (S)-7-Methyl-2-(2-methyl-1,4-dioxa-8-azaspiro[4.5]decan-8-yl)-8-nitro-6-(trifluoromethyl)-4H-1,3-benzothiazin-4-one]
Formation of the Meisenheimer complex (reduced form) in the blood assay [1]: formed only fairly detectable amounts of the Meisenheimer complex | MIC [2]: 250 ng/mL (≈ 0.561 µM) | MIC [3]: 39 ng/mL (≈ 0.0876 µM) | MIC [4]: 500 ng/mL (≈ 1.12 µM) | CC50 [5]: 38900 ng/mL (≈ 87.3 µM)

COC1=C2C=C(C(F)(F)F)CC([N+](=O)[O-])=C2SC(N2CCC3(CC2)OC[C@H](C)O3)=N1 [Compound 6a]
Solubility and stability of the methylated derivatives [6]: sufficiently soluble and stable at room temperature
